Source: article PMC6685790 (Nature structural & molecular biology, 2008)
Changes are numbered by the printed parent chain.

Tests used:
GlyR α1 WT [1] = molecular target: T1, GlyR α1 WT (Homo sapiens, UniProt P23415); assay: Cell-attached single-channel recording of wild-type GlyR α1 in HEK 293 cells; assay type: cell-based
T1 sequence (P23415 29-457): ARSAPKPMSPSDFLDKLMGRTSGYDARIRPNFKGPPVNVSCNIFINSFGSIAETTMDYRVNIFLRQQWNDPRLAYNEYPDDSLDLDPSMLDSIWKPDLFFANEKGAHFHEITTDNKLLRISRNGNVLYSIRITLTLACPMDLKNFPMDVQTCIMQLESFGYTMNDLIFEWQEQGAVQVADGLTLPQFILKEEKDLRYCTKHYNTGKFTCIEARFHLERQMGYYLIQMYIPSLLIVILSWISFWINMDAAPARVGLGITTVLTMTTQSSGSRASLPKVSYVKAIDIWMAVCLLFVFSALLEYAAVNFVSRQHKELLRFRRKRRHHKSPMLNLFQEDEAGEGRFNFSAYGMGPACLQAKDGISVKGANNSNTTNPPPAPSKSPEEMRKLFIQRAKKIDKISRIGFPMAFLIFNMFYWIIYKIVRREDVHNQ

GlyR α1^T113G = GlyR α1^T113G (Homo sapiens, UniProt P23415, T141G); assay: Whole-cell recording of substituted GlyR in HEK cells; assay type: cell-based; conditions: α1^T113G vs WT
GlyR α1^L117A = molecular target: T2, GlyR α1^L117A (Homo sapiens, UniProt P23415, L145A); assay: as above; assay type: cell-based
T2 sequence (P23415 29-457 L145A): T1 sequence (P23415 29-457) with L117A

GlyR α1 WT [2] = molecular target: T1, GlyR α1 WT; assay: Whole-cell recording of wild-type GlyR α1 expressed in HEK cells; assay type: cell-based
GlyR α1^D114G = GlyR α1^D114G (Homo sapiens, UniProt P23415, D142G); assay: Whole-cell recording of substituted GlyR in HEK cells; assay type: cell-based; conditions: α1^D114G vs WT
GlyR α1^F99A = molecular target: T3, GlyR α1^F99A (Homo sapiens, UniProt P23415, F127A); assay: as above; assay type: cell-based; conditions: α1^F99A
T3 sequence (P23415 29-457 F127A): T1 sequence (P23415 29-457) with F99A

GlyR α1 F108Y = GlyR α1 F108Y (Homo sapiens, UniProt P23415, F136Y); assay: as above; assay type: cell-based; conditions: same cell
[3] = test system: Zn^2+-activated GlyRs (ZAGs); assay type: cell-based, human; conditions: substituted GlyRs, n = 5; close to ECl
GlyR α1^F100Y = GlyR α1^F100Y (Homo sapiens, UniProt P23415, F128Y); assay: Whole-cell recording of substituted GlyR in HEK cells; assay type: cell-based; conditions: same cell
GlyR α1^L134A, D84A = GlyR α1^L134A, D84A (Homo sapiens, UniProt P23415, D112A/L162A); assay: as above; assay type: cell-based
GlyR α1^L134A, D97A = GlyR α1^L134A, D97A (Homo sapiens, UniProt P23415, D125A/L162A); assay: as above; assay type: cell-based
GlyR α1^L134A, D86A = GlyR α1^L134A, D86A (Homo sapiens, UniProt P23415, D114A/L162A); assay: as above; assay type: cell-based
GlyR α1 F99L = GlyR α1 F99L (Homo sapiens, UniProt P23415, F127L); assay: as above; assay type: cell-based; conditions: same cell
GlyR α1^T112A = GlyR α1^T112A (Homo sapiens, UniProt P23415, T140A); assay type: cell-based
[4] = direct activation without glycine
[5] = read-out: Zn^2+ Inhibition IC50, modulation of EC50 glycine currents

Chain of GlyR α1^L134A, D86A (P23415 29-457 D114A/L162A): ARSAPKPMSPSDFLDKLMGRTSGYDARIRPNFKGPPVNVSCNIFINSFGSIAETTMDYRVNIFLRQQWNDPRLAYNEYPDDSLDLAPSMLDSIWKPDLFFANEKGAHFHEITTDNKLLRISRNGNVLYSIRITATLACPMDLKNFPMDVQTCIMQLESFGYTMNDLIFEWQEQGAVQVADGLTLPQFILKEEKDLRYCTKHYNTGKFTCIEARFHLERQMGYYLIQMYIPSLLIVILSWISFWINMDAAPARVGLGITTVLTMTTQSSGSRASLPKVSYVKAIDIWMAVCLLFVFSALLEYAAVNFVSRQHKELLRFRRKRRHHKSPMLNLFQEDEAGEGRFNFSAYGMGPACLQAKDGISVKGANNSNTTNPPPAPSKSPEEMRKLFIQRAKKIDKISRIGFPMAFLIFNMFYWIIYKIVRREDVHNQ
Chain of GlyR α1^L134A, D84A (P23415 29-457 D112A/L162A): as the sequence (P23415 29-457 D114A/L162A) above, with D84A, A86D counted along it
Chain of GlyR α1 F108Y (P23415 29-457 F136Y): as the sequence (P23415 29-457 D114A/L162A) above, with A86D, F108Y, A134L counted along it
Chain of GlyR α1^F100Y (P23415 29-457 F128Y): as the sequence (P23415 29-457 D114A/L162A) above, with A86D, F100Y, A134L counted along it
Chain of GlyR α1^L134A, D97A (P23415 29-457 D125A/L162A): as the sequence (P23415 29-457 D114A/L162A) above, with A86D, D97A counted along it
Chain of GlyR α1^T112A (P23415 29-457 T140A): as the sequence (P23415 29-457 D114A/L162A) above, with A86D, T112A, A134L counted along it
Chain of GlyR α1 F99L (P23415 29-457 F127L): as the sequence (P23415 29-457 D114A/L162A) above, with A86D, F99L, A134L counted along it
Chain of GlyR α1^T113G (P23415 29-457 T141G): as the sequence (P23415 29-457 D114A/L162A) above, with A86D, T113G, A134L counted along it
Chain of GlyR α1^D114G (P23415 29-457 D142G): as the sequence (P23415 29-457 D114A/L162A) above, with A86D, D114G, A134L counted along it

NCC(=O)O [Glycine, glycine]
Burst durations Area, component 1 (GlyR α1 WT [1]; α1 WT +30 μM Gly): 28 ± 7% | Burst durations Area, component 2 (GlyR α1 WT [1]; α1 WT +30 μM Gly): 22 ± 4% | Burst durations Area, component 3 (GlyR α1 WT [1]; α1 WT +30 μM Gly): 35 ± 5% | Burst durations Area, component 4 (GlyR α1 WT [1]; α1 WT +30 μM Gly): 19 ± 7% | Burst durations τB, component 1 (GlyR α1 WT [1]; α1 WT +30 μM Gly): 0.3 ± 0.06 ms | Burst durations τB, component 2 (GlyR α1 WT [1]; α1 WT +30 μM Gly): 1.4 ± 0.6 ms | Burst durations τB, component 3 (GlyR α1 WT [1]; α1 WT +30 μM Gly): 6.9 ± 2.2 ms | Burst durations τB, component 4 (GlyR α1 WT [1]; α1 WT +30 μM Gly): 63.4 ± 14.8 ms | Closed times Area, component 1 (GlyR α1 WT [1]; α1 WT +30 μM Gly): 44 ± 16% | Closed times Area, component 2 (GlyR α1 WT [1]; α1 WT +30 μM Gly): 35 ± 15% | Closed times Area, component 3 (GlyR α1 WT [1]; α1 WT +30 μM Gly): 8 ± 1% | Closed times Area, component 4 (GlyR α1 WT [1]; α1 WT +30 μM Gly): 10 ± 2% | Closed times Area, component 5 (GlyR α1 WT [1]; α1 WT +30 μM Gly): 4 ± 1% | Closed times τC, component 1 (GlyR α1 WT [1]; α1 WT +30 μM Gly): 0.22 ± 0.03 ms | Closed times τC, component 2 (GlyR α1 WT [1]; α1 WT +30 μM Gly): 0.90 ± 0.24 ms | Closed times τC, component 3 (GlyR α1 WT [1]; α1 WT +30 μM Gly): 4.3 ± 1.6 ms | Closed times τC, component 4 (GlyR α1 WT [1]; α1 WT +30 μM Gly): 109 ± 6.2 ms | Closed times τC, component 5 (GlyR α1 WT [1]; α1 WT +30 μM Gly): 2200 ± 1000 ms | Open times Area, component 1 (GlyR α1 WT [1]; α1 WT +30 μM Gly): 36 ± 11% | Open times Area, component 2 (GlyR α1 WT [1]; α1 WT +30 μM Gly): 39 ± 3% | Open times Area, component 3 (GlyR α1 WT [1]; α1 WT +30 μM Gly): 26 ± 10% | Open times τO, component 2 (GlyR α1 WT [1]; α1 WT +30 μM Gly): 1.5 ± 0.2 ms | Open times τO, component 3 (GlyR α1 WT [1]; α1 WT +30 μM Gly): 8.9 ± 2.1 ms | Open times τO, component 1 (GlyR α1 WT [1]; α1 WT +30 μM Gly, +60 mV pipette potential): 0.28 ± 0.029 ms | Estimated single channel conductance (GlyR α1 WT [1]; α1 WT activated by glycine): ~ 60 pS | PO (open probability within clusters/bursts) (GlyR α1 WT [1]; α1 WT activated by glycine): 0.9 ± 0.03 | Single channel Amplitude (GlyR α1 WT [1]; α1 WT activated by glycine, +60 mV pipette potential): 4 – 5 pA | Single channel Amplitude (GlyR α1 WT [1]; α1 WT activated by glycine, +60 mV pipette potential, listed as Gly): 4.5 ± 0.7 pA | Increase in glycine sensitivity compared to WT (GlyR α1^T113G): 3 fold | Glycine Imax (GlyR α1^L117A): 4.4 ± 0.7 nA | Glycine nH (GlyR α1^L117A; Hill slope): 1.67 ± 0.1 | Glycine Imax (GlyR α1 WT [2]): 6.8 ± 0.5 nA | Glycine nH (GlyR α1 WT [2]; Hill slope): 2.7 ± 0.2 | Increase in glycine sensitivity compared to WT (GlyR α1^D114G): 3 fold | Glycine Imax (GlyR α1^F99A): 3.9 ± 0.4 nA | Glycine nH (GlyR α1^F99A; Hill slope): 2.3 ± 0.3

[Zn+2] [Zn^2+]
Maximal Zn^2+ (1 mM)-activated current normalised to glycine Imax (10 mM) (GlyR α1 F108Y): < 2 % Gly Imax | Reversal potential of Zn^2+-activated currents [3]: 0.4 ± 1.4 mV | Zn^2+ Activation EC50 (GlyR α1^L117A; [4]): None | IC50 (GlyR α1^L117A; [5]): 13.3 ± 3.3 µM | Zn^2+ Activation EC50 (GlyR α1 WT [2]; [4]): None | IC50 (GlyR α1 WT [2]; [5]): 15 ± 2 µM | Maximal Zn^2+ (1 mM)-activated current normalised to glycine Imax (10 mM) (GlyR α1^F100Y): < 2 % Gly Imax | Zn^2+ activation (normalised to Gly Imax) (GlyR α1^L134A, D84A; D84A): 5 ± 1% | Increase of Zn^2+ activation EC50 relative to α1^L134A (GlyR α1^L134A, D84A; D84A vs α1^L134A): 120 fold | EC50 (GlyR α1^F99A; read-out: Zn^2+ Activation EC50, direct activation without glycine): 0.13 ± 0.03 µM | IC50 (GlyR α1^F99A; [5]): > 1000 µM | Zn^2+ Activation nH (GlyR α1^F99A; Hill slope): 1.1 ± 0.1 | Zn^2+ Activation Relative efficacy (% Gly Imax) (GlyR α1^F99A; maximal Zn^2+ response as percentage of maximal glycine response in same cell): 86 ± 13 % Gly Imax | Zn^2+ activation (GlyR α1^L134A, D97A): no detectable activation | Zn^2+ activation (normalised to Gly Imax) (GlyR α1^L134A, D86A; D86A): 2.4 ± 1.2% | Increase of Zn^2+ activation EC50 relative to α1^L134A (GlyR α1^L134A, D86A; D86A vs α1^L134A): 15 fold | Maximal Zn^2+ (1 mM)-activated current normalised to glycine Imax (10 mM) (GlyR α1 F99L): < 2 % Gly Imax | Zn^2+ activation (GlyR α1^T112A): highly-sensitive and efficacious ZAG
